Results published in patent US20110028398A1, “METHODS FOR TREATING AND LIMITING FIBROTIC DISORDERS AND KELOIDS” (The Arizona Board of Regents, a body corporate acting for …, priority 2006, published 2011).

Tests used:
[1] = system: CTGF expression in human keloid fibroblasts; assay: TGF-β1-induced CTGF expression, Western blot densitometry related to GAPDH; format: cell-based
Experimental: Fibroblast culture: Human keloid fibroblasts were grown in 10 cm^2 dishes to 70% confluence in DMEM with 10% FBS and additional penicillin and streptomycin (1%), at 37° C. and 10% CO2. Cells were serum starved in DMEM containing 0.5% FBS for 48 h before the experiment. At the start of the assay, fresh media was added to the dishes, and cells were either untreated (control) or treated with TGF-β1 (doses ranging from 0.6 to 5 ng/mL), P20 phosphopeptide (doses ranging from 50-200 μM), forskolin (FSK, 10 μM) or SNAP (500 μM) for 24 h. To verify the influence of serum starvation, we also had cells in 10% FBS containing medium (control high serum).
Western blot analysis: At the end of the experiment, cells were rinsed with PBS, and homogenized using UDC buffer. Lysates were mixed, centrifuged (6000×g) for 20 min, and the supernatant was used for determination of CTGF and collagen expression. Samples (20 μg of protein) were loaded on 15 or 10% SDS-PAGE gels, and the proteins were electrophoretically transferred to Immobilon membranes. […] Protein-antibody complexes were visualized using the Odyssey direct infrared fluorescence imaging system (Li-Cor, Lincoln, Nebr.). […]
P20 treatment and CTGF expression: Human keloid fibroblasts were serum-starved in DMEM medium containing 0.5% FBS for 48 hours, stimulated with TGF-beta1 doses ranging from 1.2 to 5 ng/mL and concomitantly treated with the P20 phosphopeptide (50, 100 or 200 μM) for 24 hours. Western blot bands were quantified by densitometry, and CTGF expression was related to GAPDH expression to correct for loading differences. […]
Treatment with compounds that elevate cAMP and cGMP: We next evaluated the influence of compounds that elevate cAMP (Forskolin, FSK) or cGMP (SNAP) on CTGF expression in keloid fibroblasts. […] Western blot bands were quantified by densitometry, and CTGF expression was related to GAPDH expression to correct for loading differences. […]

[2] = system: CTGF expression in renal fibroblasts; details: Ott et al., 2003; cited from earlier work

## CC(=O)N[C@@H](C(=O)O)C(C)(C)SN=O (racemic) [SNAP]
[1]; TGF-β1-stimulated cells, SNAP 500 μM
  decrease of CTGF expression: did not decrease
[1]; non-stimulated cells, SNAP 500 μM, p<0.05
  CTGF expression compared to untreated (control) cells: two-time increase

## C=C[C@@]1(C)CC(=O)[C@]2(O)[C@@]3(C)[C@@H](O)CCC(C)(C)[C@@H]3[C@H](O)[C@H](OC(C)=O)[C@@]2(C)O1 [FSK, forskolin]
[1]; TGF-β1-stimulated fibroblasts (2.5 ng/mL), FSK 10 μM, 24 h
  decrease of CTGF expression: ~50%

## latrunculin
[2]
  CTGF expression: decreased
